Laboratory results published in ChEMBL document CHEMBL6134907, “Synthesis of 5,9- and 5,8-Diaminoalkoxy Substituted Benzophenanthridinone Analogues as Tyrosyl-DNA Phosphodiesterase 1 Inhibitors and Their Radiosensitizing Activity” (J Med Chem, 2025).
Active and inactive are the calls of the source. The calls are words filed in the database; no cut-off is given here.

How the values were obtained:
HCT-116 [1] = test: Suppression of ionizing radiation (IR) induced DNA damage in human wild type HCT-116 cells assessed as HR repair activity by measuring GFP positive cells at 1 uM measured after 24 hrs by flow cytometry; type: functional, cell-based
[2] = Toxicity in BALB/c mouse xenografted with human HCT-116 cells assessed as change in lung weight at 1 to 10 mg/kg, ip every day for 14 days radiated for every 2 days once; type: organism-based; conditions: in vivo, 336 h, dose 1-10 mg/kg, time 14 day
[3] = AUC infinity in male Sprague-Dawley rat at 1 mg/kg, iv measured up to 24 hrs by LCMS-MS analysis; type: ADME, organism-based; conditions: in vivo
[4] = target: Tyrosyl-DNA phosphodiesterase 1 (Homo sapiens, UniProt Q9NUW8); test: Inhibition of recombinant TDP1 (unknown origin) assessed as substrate cleavage using 5'-Cy5-GATCTAAAAGACTT-pY-3' DNA substrate measured after 15 mins by gel-based assay
HCT-116 [5] = test: Induction of apoptosis in human HCT-116 cells assessed as viable cells at 5 uM measured after 24 hrs by FITC Annexin V/PI apoptosis detection assay (reference value: 99.71%); type: functional; conditions: read-out: Activity
HCT-116 [6] = test: Induction of 4GY ionizing radiation (IR) induced ROS production in human HCT-116 cells assessed as mitochondrial dysfunction by measuring mitochondrial membrane potential loss at 10 uM measured after 24 hrs by JC-1 staining analysis; type: functional, cell-based
[7] = Half life in male Sprague-Dawley rat at 5 mg/kg, IG measured up to 24 hrs by LCMS-MS analysis; type: ADME, organism-based; conditions: in vivo, po
HCT-116 [8] = test: Reduction of XRCC4 expression in wild type human HCT-116 cells assessed as reduction in mRNA level at 5 to 10 uM measured after 24 hrs by qRT-PCR analysis; type: functional, cell-based; conditions: dose 5-10 µM
HCT-116 [9] = test: Induction of 4GY ionizing radiation (IR) induced apoptosis in human HCT-116 cells assessed as early apoptotic cells at 10 uM measured after 24 hrs by FITC Annexin V/PI apoptosis detection assay (reference value: 17.50%); type: functional
[10] = AUClast in male Sprague-Dawley rat at 1 mg/kg, iv measured up to 24 hrs by LCMS-MS analysis; type: ADME, organism-based; conditions: in vivo
HCT-116 [11] = test: Effect on Lig4 expression in wild type human HCT-116 cells assessed as change in protein level at 5 to 10 uM measured after 24 hrs by Western blot analysis; type: functional, cell-based; conditions: dose 5-10 µM
HCT-116 [12] = test: Induction of ROS generation in human HCT-116 cells assessed as fold increase in intracellular ROS level at 5 uM under 4GY ionizing radiation (IR) measured after 20 mins by ELIASA analysis; type: functional
HCT-116 [13] = test: Effect on Lig4 expression in wild type human HCT-116 cells assessed as change in mRNA level at 5 to 10 uM measured after 24 hrs by qRT-PCR analysis; type: functional, cell-based; conditions: dose 5-10 µM
[14] = Cmax in male Sprague-Dawley rat at 1 mg/kg, iv measured up to 24 hrs by LCMS-MS analysis; type: ADME, organism-based; conditions: in vivo
HCT-116 [15] = test: In vivo radiosensitizing activity in human HCT-116 cells xenografted in BALB/c mouse assessed as sensitization of 1 GY ionizing radiation induced reduction in tumor weight at 1 mg/kg, ip every day for 14 days radiated for every 2 days once (reference value: 35%); type: functional; set-up: scale not given: the % may be the effect or the level left; conditions: time 14 day
HCT-116 [16] = test: Induction of 4GY ionizing radiation (IR) induced apoptosis in human HCT-116 cells assessed as viable cells at 5 uM measured after 24 hrs by FITC Annexin V/PI apoptosis detection assay (reference value: 66.88%); type: functional; conditions: read-out: Activity
[17] = system: Tyrosyl-DNA phosphodiesterase 1/Deoxyribonucleic acid; test: Stabilization of TDP1/DNA complex in human HCT-116 cells at 100 uM by Cellular Thermal Shift Assay (CETSA); type: cell-based
HCT-116 [18] = test: Induction of 4GY ionizing radiation (IR) induced apoptosis in human HCT-116 cells measured after 24 hrs by TUNEL staining based analysis; type: functional, cell-based; conditions: dose 5-10 µM
[19] = Toxicity in human NCM460 cells assessed as 2GY ionizing radiation radiosensitisation mediated cell killing; type: cell-based
SW480 = test: Synergistic cytotoxicity against human SW480 cells assessed as combination index at 5 uM incubated for 48 hrs in presence of 2GY ionizing radiation (IR); type: functional
HCT-116 [20] = test: Induction of ROS generation in human HCT-116 cells assessed as intracellular ROS level at 10 uM under 4GY ionizing radiation (IR) measured after 20 mins by flow cytometry (reference value: 7.2%); type: functional
HCT-116 [21] = test: Induction of cell cycle arrest in human HCT-116 cells assessed as accumulation of cells at G2/M phase at 10 uM measured after 24 hrs by Propidium iodide (PI) staining based assay (reference value: 15.77%); type: functional
HCT-116 [22] = test: Induction of cell cycle arrest in human HCT-116 cells assessed as accumulation of cells at G0/G1 phase at 10 uM measured after 24 hrs by Propidium iodide (PI) staining based assay (reference value: 69.35%); type: functional
[23] = Toxicity in BALB/c mouse xenografted with human HCT-116 cells assessed as change in kidney weight at 1 to 10 mg/kg, ip every day for 14 days; type: organism-based; conditions: in vivo, 336 h, dose 1-10 mg/kg, time 14 day
HCT-116 [24] = test: Synergistic cytotoxicity against human SgTDP1-HCT-116 cells (TDP1 knockout) assessed as combination index at 1 uM incubated for 48 hrs in presence of 2GY ionizing radiation; type: functional
[25] = Suppression of ionizing radiation (IR) induced DNA damage in human SgTDP1-HCT-116 cells (TDP1 knockout) assessed as NHEJ repair activity by measuring GFP positive cells at 1 uM measured after 24 hrs by flow cytometry (reference value: 100%); type: functional
HCT-116 [26] = test: Induction of ionizing radiation (IR) induced gamma-H2AX foci in human HCT-116 cells at 5 uM measured after 3 hrs by immunofluorescence assay; type: functional, cell-based
HCT-116 [27] = test: Induction of ROS generation in human HCT-116 cells assessed as fold increase in intracellular ROS level at 10 uM under […] ionizing radiation (IR) measured after 20 mins by ELIASA analysis; type: functional
HCT-116 [28] = test: Induction of apoptosis in human HCT-116 cells assessed as induction of 4GY ionizing radiation (IR) induced cleaved PARP at 5 uM measured after 24 hrs by Western blot analysis; type: functional, cell-based
HCT-116 [29] = test: Induction of 4GY ionizing radiation (IR) induced apoptosis in human HCT-116 cells assessed as late apoptotic cells at 10 uM measured after 24 hrs by FITC Annexin V/PI apoptosis detection assay (reference value: 14.32%); type: functional
HCT-116 [30] = test: Effect on Lig4 expression in wild type human HCT-116 cells assessed as change in protein level at 5 to 10 uM radiated with 4 GY ionizing radiation (IR) measured after 24 hrs by Western blot analysis; type: functional, cell-based; conditions: dose 5-10 µM
[31] = Half life in male Sprague-Dawley rat at 1 mg/kg, iv measured up to 24 hrs by LCMS-MS analysis; type: ADME, organism-based; conditions: in vivo
[32] = Induction of 4GY ionizing radiation (IR) induced cell cycle arrest in human HCT-116 cells assessed as accumulation of cells at G0/G1 phase at 10 uM measured after 24 hrs by Propidium iodide (PI) staining based assay (reference value: 65.99%); type: functional

Tyrosyl-DNA phosphodiesterase 1, sequence (Q9NUW8 whole entry): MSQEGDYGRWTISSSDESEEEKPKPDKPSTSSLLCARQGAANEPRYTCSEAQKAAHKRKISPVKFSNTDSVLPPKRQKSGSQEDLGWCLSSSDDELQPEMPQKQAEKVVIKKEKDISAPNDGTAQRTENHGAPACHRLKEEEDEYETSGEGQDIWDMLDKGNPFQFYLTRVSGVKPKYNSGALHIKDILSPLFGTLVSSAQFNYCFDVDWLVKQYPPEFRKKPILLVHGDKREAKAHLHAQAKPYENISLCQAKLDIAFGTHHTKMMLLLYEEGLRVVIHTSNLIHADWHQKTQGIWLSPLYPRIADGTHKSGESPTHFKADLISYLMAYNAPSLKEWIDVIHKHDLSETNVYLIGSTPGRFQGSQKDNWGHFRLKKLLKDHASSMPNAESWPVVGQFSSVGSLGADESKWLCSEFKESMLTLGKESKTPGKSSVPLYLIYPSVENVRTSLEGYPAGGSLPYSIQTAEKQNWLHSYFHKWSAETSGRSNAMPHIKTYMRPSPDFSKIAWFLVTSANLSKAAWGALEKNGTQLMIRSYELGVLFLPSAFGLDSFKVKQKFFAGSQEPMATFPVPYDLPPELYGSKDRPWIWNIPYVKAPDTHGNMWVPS

## COc1cc2c(=O)n(CCN(C)C)c3c4cc5c(cc4ccc3c2cc1OCCN1CCOCC1)OCO5
HCT-116 [1]
  Activity: inactive
[2]
  Activity: Non-toxic
[3]
  AUC(0-inf): 291 ng·h/mL
[4]
  IC50: 7.8 µM
HCT-116 [5]
  viability at 5 µM: 78.2%
HCT-116 [6]
  Activity: Active
[7]
  half-life: 4.64 h
HCT-116 [8]
  Activity: Active
HCT-116 [9]
  Activity: 19.85%
[10]
  AUC(0-t) at 24 h: 247 ng·h/mL
HCT-116 [11]
  Activity: inactive
HCT-116 [12]
  fold change (FC): 1.7
HCT-116 [13]
  Activity: inactive
[14]
  Cmax: 221 ng/mL
HCT-116 [15]
  Activity: 60%
HCT-116 [16]
  viability at 5 µM: 61.3%
[17]
  Activity: Active; Coincubation With Ionizing Radiation Showed Greater Complex Formation
HCT-116 [18]
  Activity: Dose-dependent-effect
[19]
  Activity: Non-toxic
SW480
  CI: <0.3
HCT-116 [20]
  Activity: 27.6%
HCT-116 [21]
  Activity: 25.64%
HCT-116 [22]
  Activity: 63.63%
[23]
  Activity: Non-toxic
HCT-116 [24]
  CI: 0.46
[25]
  Activity: 7%
HCT-116 [26]
  Activity: Active
HCT-116 [27]
  fold change (FC): 2.1
HCT-116 [28]
  Activity: Active
HCT-116 [29]
  Activity: 23.04%
HCT-116 [30]
  Activity: inactive
[31]
  half-life: 2.86 h
[32]
  Activity: 20.79%
